Source: patent US20060093577A1, “Combination anti-viral compositions and methods of use” (priority 2004, published 2006)

Legend:
BVDV [1] = assay: Plaque reduction assay; format: cell-based; conditions: Bovine viral diarrhea virus isolates and strains
Protocol: The BVDV virus stock was serially diluted in phosphate buffered saline (PBS) containing 1-5% horse serum (HS). MDBK cells were grown to confluence in culture dishes and were infected at 37° C. with BVDV at various multiplicity of infection (<1 to >0.001). After 1.5 hours of adsorption, the inoculum was removed. The cell monolayer was overlaid with 0.5% agarose dissolved in cell growth media containing 5% HS with and without test compound(s) (castanospermine, ribavirin, or IFN-α). The dishes were incubated for 3 to 5 days at 37° C. under 5% CO2. The monolayer of MDBK cells was fixed with formaldehyde, stained with crystal violet or methylene blue according to standard methods, and then washed in double distilled water. Following washing, the plates air dried at room temperature. The virus plaques formed in the MDBK cell cultures were quantified by manual counting. The inhibitory activities of test compounds were determined by calculating the percent (%) reduction in plaques as follows: % reduction in plaques=[…].

[2] = CC50 in plaque reduction assay table (Example 3); format: cell-based; conditions: bovine
BVDV [3] = assay: Protection of MDBK cells from BVDV-induced cytotoxicity (MTS/PMS CPE reduction); format: cell-based; conditions: Bovine viral diarrhea virus isolates and strains
Protocol: Cell proliferation assays were performed using a non-radioactive cell proliferation MTS/PMS assay (MTS: 3-(4,5-dimethylthiazol-2-yl)-5-(3-carboxymethoxy phenyl)-2-(4-sulfophenyl)-2H-tetrazolium (Promega Corporation, Madison, Wis.); PMS: phenazine methosulfate (Sigma Aldrich, St. Louis, Mo.)). MDBK cells were seeded into 96-well plates at a density of approximately 2×10^4 cells per well. The cultures were incubated 3-24 hours to permit attachment of the cells to the plates prior to infection and addition of compounds. The appropriate number of PFU of BVDV were added to each well to achieve the desired MOI (0.1 or 0.01); the cells were exposed to the virus diluted at the appropriate concentration in phosphate buffered saline (PBS) containing 1% horse serum for 1 to 2 hours. The virus inoculum was then removed and the cells were washed with PBS containing 1% HS. The test compounds, castanospermine, ribavirin, and interferon-α were dissolved in cell growth media with 2% HS and added to the cells at varying concentrations, and then incubated at 37° C. in the presence of 5% CO2 for 3-4 days. Uninfected cells and infected, untreated cells (i.e., without compound) were used as additional controls. After the 3-4 days of incubation, a combined MTS/PMS solution was added into each well assay plate containing 100 μL of cells in culture medium to obtain final concentrations of 333 μg/ml MTS and 25 μM PMS. A spectrophotometer plate reader was used to measure the absorbance at 490 nm after incubation of the 96-well plate for 1 to 4 hours at 37° C. in a humidified, 5% CO2 atmosphere. The mean absorbance in each set of triplicate wells was determined. Antiviral activity was measured as MTS conversion relative to the differential between the conversion for cell (non-infected) and viral (non-drug-treated) controls. The cytopathic effect (CPE) reduction for each concentration of the tested compound, which correlated with antiviral activity, was calculated as follows. % CPE reduction=[(D−ND)/(NI−ND)]×100, in which D (drug-treated) is the absorbance of drug-treated cells; ND (non drug-treated) is the absorbance of untreated infected cells; and NI (non-infected) is the absorbance of non-infected cells.
The EC50 represents the concentration of the drug that protects 50% of the cells from BVDV induced cytotoxicity (i.e., 50% CPE reduction). CC50 equals the concentration that affects the viability of 50% of the MDBK cells.

BVDV [4] = assay: Two-way combination inhibition-of-CPE assay, BVDV-infected MDBK cells, MOI 0.01 (MacSynergy, isobologram); format: cell-based, bovine viral diarrhea virus; conditions: for EC50: Bovine viral diarrhea virus isolates and strains, MDBK
Protocol: (§1) Each two-way combination was performed twice.
Initially, as was done in Example 1, individual compound potency (EC50) for inhibition of BVDV-induced cytopathic effects in MDBK cells was determined for each combination experiment (see Table 5). Minimal experiment-to-experiment variability in individual drug potency was observed.
A greater positive percent (synergy) volume is indicative of a synergistic effect. Values less than 25 μM/ml^2% or 25 μM(IU)/ml(well)^2% are insignificant; values between 25 and 50 μM/ml^2% or 25 and 50 μM(IU)/ml(well)^2% are considered minor but significant; values between 50 and 100 μM/ml^2% or μM(IU)/ml(well)^2% indicate moderate synergy that may be indicative of a significant synergistic effect in vivo; and values greater than 100 μM/ml^2% or μM(IU)/ml(well)^2% indicate strong synergy that is likely indicative of a significant synergistic effect in vivo.

[5] = CC50, viability of MDBK cells (Example 1); conditions: bovine
Protocol: MDBK cells were seeded into 96-well plates at a density of approximately 2×10^4 cells per well. The cultures were incubated 3-24 hours to permit attachment of the cells to the plates prior to infection and addition of compounds. […] The mean absorbance in each set of triplicate wells was determined. Antiviral activity was measured as MTS conversion relative to the differential between the conversion for cell (non-infected) and viral (non-drug-treated) controls.

BVDV strain NADL = assay: Inhibition of BVDV release from MDBK cells; format: cell-based; conditions: Bovine viral diarrhea virus isolates and strains, MOI about 0.01, 24 hours
Protocol: The cell cultures were incubated 3-24 hours to allow attachment of the cells to the tissue culture plates prior to infection and addition of compounds. The appropriate number of plaque forming units (PFU) of BVDV strain NADL (ATCC VR-534) diluted in sterile PBS containing 1% HS were added to each well to achieve the desired multiplicity of infection (MOI) (about 0.01). The cells were exposed to the virus at 37° C., 5% CO2 for 1.5 hours, and then washed with PBS. The test compounds, dissolved in cell growth media with 2% HS, were then added to the cells at varying concentrations. The plates were incubated at 37° C., 5% CO2 for 24 hours (one cycle of BVDV replication). The 96-well plates were then centrifuged at low speed to pellet the cells. The supernatant was serially diluted and used to infect a new monolayer of cells in 12-well plates. The cell monolayer was then overlaid with 0.5% agarose dissolved in cell growth media with 5% HS containing (1) castanospermine (Phytex, Australia); (2) ribavirin (Ribavirin, Sigma); (3) IFN-α2b (PBL Biomedical Laboratories, Piscataway, N.J.); or (4) alone (i.e., no added test compound). The treated cells were incubated for 3 to 5 days at 37° C. under 5% CO2, fixed with formaldehyde, stained with crystal violet or methylene blue, washed in double distilled water, and finally air dried at room temperature. Virus plaques formed were quantified by manual counting, and titer was determined.

BVDV [6] = assay: Two-way combination inhibition-of-CPE assay, BVDV-infected MDBK cells, MOI 0.05 (Example 5); format: cell-based, bovine viral diarrhea virus; conditions: read-out: EC50 protection of MDBK cells from BVDV-induced cytotoxicity
Protocol: as §1
Individual potencies (EC50) of each of the drugs for inhibition of BVDV-induced cytopathic effects in MDBK cells were determined for each combination experiment (see Table 9).

[7] = read-out: EC50 (50% CPE reduction), MOI = 0.01
[8] = read-out: EC50 (50% CPE reduction), MOI = 0.1
[9] = MOI 0.01, combination experiments, compound alone, read-out: EC50 protection from BVDV-induced cytotoxicity, individual compound
[10] = Bovine viral diarrhea virus isolates and strains, MDBK

## NC(=O)c1ncn([C@@H]2O[C@H](CO)[C@@H](O)[C@H]2O)n1 [Ribavirin, reference compound]
BVDV [1]
  EC50: 9.1 ± 6.3 µM
[2]; MDBK cells, Table 3, read-out: CC50
  CC50: 250 µM
BVDV [3]; [7]
  EC50: 4.4 ± 2 µM
BVDV [3]; [8]
  EC50: 9 ± 1 µM
BVDV [4]; [9]
  EC50: 4 ± 2 µM
BVDV [4]; at about 10 IU/mL interferon-α2b
  fold reduction of ribavirin EC50 (isobologram): > 6 fold
[5]
  CC50: 57 ± 34 µM
BVDV strain NADL
  EC50: 2.4 ± 2.2 µM
  EC90: 4.9 ± 1.9 µM

## O[C@H]1[C@H](O)[C@@H](O)CN2CC[C@H](O)[C@H]12 [Castanospermine, [1S-(1α,6β,7α,8β,8αβ)]-octahydro-1,6,7,8-indoli-zinetetrol]
BVDV [1]
  EC50: 110 ± 82 µM
[2]
  CC50: > 1000 µM
BVDV [3]; [7]
  EC50: 61.5 ± 15.4 µM
BVDV [3]; [8]
  EC50: 177 ± 14.5 µM
BVDV [4]; Interferon-α2b added 0 IU/mL, read-out: Average Castanospermine EC50
  EC50: 52 µM
BVDV [4]; Interferon-α2b added 0.7 IU/mL, read-out: Average Castanospermine EC50
  EC50: 39 µM
BVDV [4]; Interferon-α2b added 2.2 IU/mL, read-out: Average Castanospermine EC50
  EC50: 19 µM
BVDV [4]; Interferon-α2b added 6.7 IU/mL, read-out: Average Castanospermine EC50
  EC50: 12 µM
BVDV [4]; Interferon-α2b added 20 IU/mL, read-out: Average Castanospermine EC50
  EC50: 1 µM
BVDV [4]; Interferon-α2b added 60 IU/mL, read-out: Average Castanospermine EC50
  EC50: < 1 µM
BVDV [4]; [9]
  EC50: 59 ± 16 µM
BVDV [4]; addition of increasing concentrations of interferon-α2b
  dose-dependent reduction in EC50 of castanospermine: > 52 fold
BVDV [4]; at 10 IU/mL of interferon-α2b
  fold reduction of castanospermine EC50 (isobologram): > 7 fold
BVDV [4]; at 20 IU/mL interferon-α2b
  fold decrease of castanospermine EC50: ~50 fold
[5]
  CC50: > 1000 µM
BVDV strain NADL
  EC50: 14 ± 8 µM
  EC90: 83 ± 21 µM
BVDV [6]; [10]
  EC50: > 100 µM

## CCCCN1C[C@H](O)[C@@H](O)[C@H](O)[C@H]1CO [NB-DNJ, N-butyl-DNJ]
BVDV [6]; MOI 0.05, individual drug
  EC50: > 500 µM

## Interferon-α2b
BVDV [4]; Castanospermine added 0 μM
  Average Interferon-α2b EC50: 16 IU/mL
BVDV [4]; Castanospermine added 1.2 μM
  Average Interferon-α2b EC50: 18 IU/mL
BVDV [4]; Castanospermine added 3.7 μM
  Average Interferon-α2b EC50: 13 IU/mL
BVDV [4]; Castanospermine added 11 μM
  Average Interferon-α2b EC50: 7 IU/mL
BVDV [4]; Castanospermine added 33 μM
  Average Interferon-α2b EC50: 1 IU/mL
BVDV [4]; Castanospermine added 100 μM
  Average Interferon-α2b EC50: <1 IU/mL
BVDV [4]; MOI 0.01, combination experiments, compound alone
  EC50 protection from BVDV-induced cytotoxicity, individual compound: 19 ± 6 IU/mL
BVDV [4]; at 11 μM of castanospermine
  fold decrease of interferon-α2b EC50: ~2 fold

## NC12CC3CC(CC(C3)C1)C2 [Amantadine, amantadine]
BVDV [6]; [10]
  EC50: 400 µM
